In patent US7238524B2, “Prostate cancer cell lines” (Board of Regents of the University of Nebraska, priority 2001, dated 2007):

Legend:
Type in all cases: cell-based, human
NSE [1] = test: Induction of NE transdifferentiation (NSE expression, western blot) in LNCaP cells cultured in steroid-reduced condition; details: androgen-responsive LNCaP cells in steroid-reduced condition, FIG. 7C
From the text: (§1) FIGS. 7A-7C show three western blots. FIG. 7A is a western blot showing levels of MEK and phosphorylated MEK in LNCaP cells and three NE-like subclone cells, NE-1-3, NE-1-8 and NE-1-9. FIG. 7B is a western blot showing inhibition of ERK activation levels in the presence of the MEK inhibitor, PD098059, in NE-1-3 subclone cells. FIG. 7C is a western blot showing inhibition of NSE expression levels mediated by the MEK inhibitor, PD098059, in steroid-reduced medium.
(§2) To test the causal relationship of ERK/MAPK activation with NE-like transdifferentiation, MEKs, up-stream regulators of ERK/MAPK kinases, were examined to determine if they are also activated in the NE-like subclone cells.

ERK/MAPK = test: Western blot of ERK/MAPK activation in NE-like subclone cells with MEK inhibitor; details: NE-like subclone cells (NE-1-3), FIG. 7B
From the text: as §1, §2

LNCaP cells = test: Effect of butyrate on LNCaP cell growth; details: butyrate treatment, FIG. 10A
Method: (§3) FIGS. 10A and 10B show a pair of graphs illustrating the effects of sodium butyrate on LNCaP cell population (FIG. 10A) accompanied by a western blot showing resolution of NSE and RPTPα expression levels in LNCaP cells in the presence of increasing concentrations of sodium butyrate (FIG. 10B).
(§4) The regulation of RPTPα expression was then investigated in prostate cancer cells. The regulation of RPTPα expression was measured using butyrate since this pharmacological reagent induces cellular differentiation and has been utilized in the clinical trials for advanced prostate cancer therapy (29). […] This 160 kDa protein may represent an isoform of RPTPα, due to post-translational modifications (27,28).

RPTPα = test: Western blot of RPTPα expression in butyrate-treated LNCaP cells; details: increasing concentrations of sodium butyrate, FIG. 10B
Method: as §3, §4

NSE [2] = test: Western blot of NSE expression in butyrate-treated LNCaP cells; details: increasing concentrations of sodium butyrate, FIG. 10B
Method: as §3, §4

SMILES: COc1cccc(-c2cc(=O)c3ccccc3o2)c1N [PD098059]
- induction of NE transdifferentiation (NSE expression) (NSE [1]): abolished
- activation of ERK/MAPK (phosphorylated ERK) (ERK/MAPK): effectively inhibited

SMILES: CCCC(=O)[O-].[Na+] [Butyrate, sodium butyrate]
- growth of LNCaP cells (LNCaP cells): growth suppression
- RPTPα protein expression (RPTPα): elevated levels
- NSE protein expression (NSE [2]): elevated levels
